Literature values in patent publication US20110064750A1, “METHOD AND KIT FOR TREATING NICOTINE ADDICTION” (Nabi Biopharmaceuticals, priority 2009, published 2011).
Where two headings read alike, the source gives them in different places.

Key:
smoking abstinence [1] = settings: 12 week course, varenicline 1.0 mg bid, bupropion 150 mg SR bid, carbon-monoxide confirmed
smoking abstinence [2] = system: smoking abstinence
[3] = target: α3β2 nicotinic acetylcholine receptors (Homo sapiens, UniProt P17787+P32297); settings: blocking nicotine activation of nAChRs
[4] = target: α4β2 nicotinic acetylcholine receptors (Homo sapiens, UniProt P17787+P43681); settings: blocking nicotine activation of nAChRs
[5] = system: neuronal uptake of norepinephrine and dopamine
smoking cessation = settings: for Time at which efficacy generally is apparent: previous studies
[6] = salt form, powder
α4β2 nicotinic receptors = α4β2 nicotinic receptors (Homo sapiens, UniProt P17787+P43681); settings: stimulating receptor-mediated activity at a significantly lower level than nicotine
α4β2 nicotinic receptors, sequence (P43681 29-627 limits assumed): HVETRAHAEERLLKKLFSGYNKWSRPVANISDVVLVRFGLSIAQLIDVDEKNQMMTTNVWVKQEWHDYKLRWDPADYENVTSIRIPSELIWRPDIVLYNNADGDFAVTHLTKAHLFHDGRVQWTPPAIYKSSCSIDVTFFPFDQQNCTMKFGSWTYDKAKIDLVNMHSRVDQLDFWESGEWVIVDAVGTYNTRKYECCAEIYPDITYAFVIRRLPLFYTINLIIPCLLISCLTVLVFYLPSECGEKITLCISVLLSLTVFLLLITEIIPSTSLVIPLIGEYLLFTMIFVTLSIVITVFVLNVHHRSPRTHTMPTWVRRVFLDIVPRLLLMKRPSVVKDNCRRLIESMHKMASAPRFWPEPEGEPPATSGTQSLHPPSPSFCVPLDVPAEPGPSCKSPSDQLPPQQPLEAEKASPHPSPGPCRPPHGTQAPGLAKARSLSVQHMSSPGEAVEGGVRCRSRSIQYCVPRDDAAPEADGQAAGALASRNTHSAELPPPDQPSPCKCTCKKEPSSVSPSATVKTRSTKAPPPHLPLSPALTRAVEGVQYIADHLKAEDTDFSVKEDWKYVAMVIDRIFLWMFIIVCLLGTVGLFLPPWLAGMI
α4β2 nicotinic receptors, sequence (P17787 26-502): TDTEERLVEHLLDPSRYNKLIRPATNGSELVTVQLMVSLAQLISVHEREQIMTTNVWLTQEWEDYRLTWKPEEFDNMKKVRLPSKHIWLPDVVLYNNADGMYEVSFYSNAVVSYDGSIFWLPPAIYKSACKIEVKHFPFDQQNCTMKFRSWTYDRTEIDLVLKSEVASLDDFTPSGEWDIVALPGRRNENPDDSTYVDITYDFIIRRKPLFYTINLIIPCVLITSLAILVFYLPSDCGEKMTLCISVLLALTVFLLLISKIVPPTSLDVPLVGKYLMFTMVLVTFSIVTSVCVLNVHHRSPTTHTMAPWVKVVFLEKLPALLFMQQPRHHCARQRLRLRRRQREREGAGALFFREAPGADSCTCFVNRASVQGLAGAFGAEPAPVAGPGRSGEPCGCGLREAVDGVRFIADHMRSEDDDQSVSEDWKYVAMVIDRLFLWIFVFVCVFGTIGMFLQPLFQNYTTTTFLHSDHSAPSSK

α4β2 nicotinic acetylcholine receptors, sequence (P43681 29-627 limits assumed): as the sequence (P43681 29-627 limits assumed) above
α4β2 nicotinic acetylcholine receptors, sequence (P17787 26-502): as the sequence (P17787 26-502) above
α3β2 nicotinic acetylcholine receptors, sequence (P32297 32-505): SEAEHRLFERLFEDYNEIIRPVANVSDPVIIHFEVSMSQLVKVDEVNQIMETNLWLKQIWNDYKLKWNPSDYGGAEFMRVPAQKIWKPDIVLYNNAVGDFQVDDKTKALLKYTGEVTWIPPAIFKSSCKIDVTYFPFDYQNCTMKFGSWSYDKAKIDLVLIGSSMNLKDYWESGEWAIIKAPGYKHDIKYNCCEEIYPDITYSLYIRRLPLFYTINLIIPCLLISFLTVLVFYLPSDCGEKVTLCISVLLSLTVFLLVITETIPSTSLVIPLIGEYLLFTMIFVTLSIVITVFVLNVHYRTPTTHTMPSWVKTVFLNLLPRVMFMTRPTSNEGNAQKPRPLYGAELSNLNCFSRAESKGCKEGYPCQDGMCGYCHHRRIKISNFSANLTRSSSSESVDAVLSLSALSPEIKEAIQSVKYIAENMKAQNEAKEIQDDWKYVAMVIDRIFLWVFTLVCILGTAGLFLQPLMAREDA
α3β2 nicotinic acetylcholine receptors, sequence (P17787 26-502): as the sequence (P17787 26-502) above

## CC(NC(C)(C)C)C(=O)c1cccc(Cl)c1.Cl (stereo not shown) [Bupropion, Bupropion hydrochloride]
Smoking abstinence [1]; Study A
  Continuous Abstinence Rate (Wks 9-12): 16%
Smoking abstinence [1]; Study B
  Continuous Abstinence Rate (Wks 9-12): 14%
Smoking abstinence [2]; 100 mg/day
  Abstinence from week 4 through Week 7 (4-week quit): 22%
  Abstinence from week 4 through Week 12: 20%
  Abstinence from week 4 through Week 26: 16%
Smoking abstinence [2]; 150 mg/day
  Abstinence from week 4 through Week 7 (4-week quit): 27%
  Abstinence from week 4 through Week 12: 20%
  Abstinence from week 4 through Week 26: 18%
Smoking abstinence [2]; 300 mg/day
  Abstinence from week 4 through Week 7 (4-week quit): 36%
  Abstinence from week 4 through Week 12: 25%
  Abstinence from week 4 through Week 26: 19%
[3]
  Times more effective in blocking α3β2 than α7: 50 times
[4]
  Times more effective in blocking α4β2 than α7: 12 times
[5]
  Inhibition of the neuronal uptake of norepinephrine and dopamine: relatively weak inhibitor
Monoamine oxidase
  Inhibition of monoamine oxidase: does not inhibit
Smoking cessation; even though administration is ongoing
  Time at which efficacy may diminish: after about six or seven weeks
Smoking cessation; in vivo
  Chances of quitting smoking compared with placebo: double
  Nicotine craving and nicotine withdrawal symptoms: lower
Smoking cessation
  Time at which efficacy generally is apparent: one week after the first dose
[6]
  Solubility in water: highly soluble in water

## c1cnc2cc3c(cc2n1)[C@@H]1CNC[C@H]3C1 [Varenicline, 7,8,9,10-tetrahydro-6,10-methano-6H-pyrazino[2,3-h][3]benzazpine, (2R,3R)-2,3-dihydroxybutanedioate(1:1)]
Smoking abstinence [1]; Study A
  Continuous Abstinence Rate (Wks 9-12): 21%
Smoking abstinence [1]; Study B
  Continuous Abstinence Rate (Wks 9-12): 22%
α4β2 nicotinic receptors
  Agonist activity at α4β2 nicotinic receptors: low level agonist
Smoking cessation
  Time at which efficacy generally is apparent: one week after the first dose
[6]
  Solubility in water: highly soluble in water
